Measured values reported in US20250270213A1, “PI3Ka INHIBITORS” (Synnovation Therapeutics, Inc., priority 2022, published 2025).

test system: T47D (PIK3CA H1047R) cells; assay: pS473 AKT assay with 2.5% FBS, T47D cells; assay type: cell-based; settings: Homo sapiens, pSer473 AKT, DMEM with 2.5% FBS, 2 h treatment, read-out: T47D_IC50
In short: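 T47D (PIK3CA H1047R) cells were switched to DMEM with 2.5% FBS and exposed to compounds for 2 h. After paraformaldehyde fixation, pSer473 AKT was detected by in-cell ELISA (rabbit primary, HRP anti-rabbit secondary, chemiluminescence); IC50 values were fitted from the concentration series.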

Compound | IC50
Cc1ncn2c3c(C(C)Nc4ccccc4C(=O)O)cc(Cl)cc3c(=O)n(C)c12 (centres unmarked) [Compound I-11, 2-((1-(7-Chloro-3,4-dimethyl-5-oxo-4,5-dihydroimidazo[1,5-a]quinazolin-9-yl)ethyl)amino)benzoic acid] | < 1000 nM
CCn1c(=O)c2cc(Cl)cc(C(C)Nc3ccccc3C(=O)O)c2n2cncc12 (centres unmarked) [Compound I-12, 2-((1-(7-Chloro-4-ethyl-5-oxo-4,5-dihydroimidazo[1,5-a]quinazolin-9-yl)ethyl)amino)benzoic acid] | < 1000 nM
CCc1ncn2c3c(C(C)Nc4ccccc4C(=O)O)cc(Cl)cc3c(=O)n(CC)c12 (centres unmarked) [Compound I-13, 2-((1-(7-Chloro-3,4-diethyl-5-oxo-4,5-dihydroimidazo[1,5-a]quinazolin-9-yl)ethyl)amino)benzoic acid] | < 1000 nM
Cc1cc(C(C)Nc2ccccc2C(=O)O)c2c(c1)c(=O)n(C)c1nccn21 (centres unmarked) [Compound I-14, 2-((1-(4,7-Dimethyl-5-oxo-4,5-dihydroimidazo[1,2-a]quinazolin-9-yl)ethyl)amino)benzoic acid] | < 1000 nM
Cc1cc(C(C)Nc2ccccc2C(=O)O)c2c(c1)c(=O)n(C)c1ncnn21 (centres unmarked) [Compound I-15, 2-((1-(4,7-Dimethyl-5-oxo-4,5-dihydro-[1,2,4]triazolo[1,5-a]quinazolin-9-yl)ethyl)amino)benzoic acid] | < 1000 nM
Cc1cc(C(C)Nc2ccccc2C(=O)O)c2c(c1)c(=O)n(C)c1c2cnn1C (centres unmarked) [Compound I-16, 2-((1-(3,4,7-Trimethyl-5-oxo-4,5-dihydro-3H-pyrazolo[3,4-c]isoquinolin-9-yl)ethyl)amino)benzoic acid] | < 1000 nM
Cc1cc(C(C)Nc2ccc(Cl)nc2C(=O)O)c2c(c1)c(=O)n(C)c1c2cnn1C (centres unmarked) [Compound I-17, 6-Chloro-3-((1-(3,4,7-trimethyl-5-oxo-4,5-dihydro-3H-pyrazolo[3,4-c]isoquinolin-9-yl)ethyl)amino)picolinic acid] | < 1000 nM
CCn1ncc2c3c(C(C)Nc4ccccc4C(=O)O)cc(C)cc3c(=O)n(C)c21 (centres unmarked) [Compound I-18, 2-((1-(3-Ethyl-4,7-dimethyl-5-oxo-4,5-dihydro-3H-pyrazolo[3,4-c]isoquinolin-9-yl)ethyl)amino)benzoic acid] | < 1000 nM
CCn1ncc2c3c(C(C)Nc4ccc(Cl)nc4C(=O)O)cc(C)cc3c(=O)n(C)c21 (centres unmarked) [Compound I-19, 6-Chloro-3-((1-(3-ethyl-4,7-dimethyl-5-oxo-4,5-dihydro-3H-pyrazolo[3,4-c]isoquinolin-9-yl)ethyl)amino)picolinic acid] | < 1000 nM
CCn1ncc2c3c(C(C)Nc4ccc(C)nc4C(=O)O)cc(C)cc3c(=O)n(C)c21 (centres unmarked) [Compound I-20, 3-((1-(3-Ethyl-4,7-dimethyl-5-oxo-4,5-dihydro-3H-pyrazolo[3,4-c]isoquinolin-9-yl)ethyl)amino)-6-methylpicolinic acid] | < 1000 nM
CCn1c(=O)c2cc(C)cc(C(C)Nc3ccccc3C(=O)O)c2c2cnn(C)c21 (centres unmarked) [Compound I-21, 2-((1-(4-Ethyl-3,7-dimethyl-5-oxo-4,5-dihydro-3H-pyrazolo[3,4-c]isoquinolin-9-yl)ethyl)amino)benzoic acid] | < 1000 nM
CCn1c(=O)c2cc(C)cc(C(C)Nc3ccc(Cl)nc3C(=O)O)c2c2cnn(C)c21 (centres unmarked) [Compound I-22, 6-Chloro-3-((1-(4-ethyl-3,7-dimethyl-5-oxo-4,5-dihydro-3H-pyrazolo[3,4-c]isoquinolin-9-yl)ethyl)amino)picolinic acid] | < 1000 nM
CCn1ncc2c3c(C(C)Nc4ccccc4C(=O)O)cc(C)cc3c(=O)n(CC)c21 (centres unmarked) [Compound I-23, 2-((1-(3,4-Diethyl-7-methyl-5-oxo-4,5-dihydro-3H-pyrazolo[3,4-c]isoquinolin-9-yl)ethyl)amino)benzoic acid] | < 1000 nM
CCn1ncc2c3c(C(C)Nc4ccc(F)cc4C(=O)O)cc(C)cc3c(=O)n(CC)c21 (centres unmarked) [Compound I-24, 2-((1-(3,4-Diethyl-7-methyl-5-oxo-4,5-dihydro-3H-pyrazolo[3,4-c]isoquinolin-9-yl)ethyl)amino)-5-fluorobenzoic acid] | < 1000 nM
CCn1ncc2c3c(C(C)Nc4ccc(C)nc4C(=O)O)cc(C)cc3c(=O)n(CC)c21 (centres unmarked) [Compound I-25, 3-((1-(3,4-Diethyl-7-methyl-5-oxo-4,5-dihydro-3H-pyrazolo[3,4-c]isoquinolin-9-yl)ethyl)amino)-6-methylpicolinic acid] | < 1000 nM
CCCn1cc2c3c(C(C)Nc4ccccc4C(=O)O)cc(C)cc3c(=O)n(C)c2n1 (centres unmarked) [Compound I-26, 2-((1-(4,7-Dimethyl-5-oxo-2-propyl-4,5-dihydro-2H-pyrazolo[3,4-c]isoquinolin-9-yl)ethyl)amino)benzoic acid] | < 1000 nM

Compound | IC50
Cc1cc(C(C)Nc2ccccc2C(=O)O)c2c(c1)c(=O)n(C)c1nn(C3CCOCC3)cc21 (centres unmarked) [Compound I-27, 2-((1-(4,7-Dimethyl-5-oxo-2-(tetrahydro-2H-pyran-4-yl)-4,5-dihydro-2H-pyrazolo[3,4-c]isoquinolin-9-yl)ethyl)amino)benzoic acid] | < 1000 nM
Cc1cc(C(C)Nc2ccccc2C(=O)O)c2c(c1)c(=O)n(C)c1nn(CCc3ccccc3)cc21 (centres unmarked) [Compound I-28, 2-((1-(4,7-Dimethyl-5-oxo-2-phenethyl-4,5-dihydro-2/I-pyrazolo[3,4-c]isoquinolin-9-yl)ethyl)amino)benzoic acid] | < 1000 nM
Cc1cc(C(C)Nc2ccccc2C(=O)O)c2c(c1)c(=O)n(C)c1nn(-c3ccnc(F)c3)cc21 (centres unmarked) [Compound I-29, 2-((1-(2-(2-Fluoropyridin-4-yl)-4,7-dimethyl-5-oxo-4,5-dihydro-2H-pyrazolo[3,4-c]isoquinolin-9-yl)ethyl)amino)benzoic acid] | < 1000 nM
Cc1cc(C(C)Nc2ccccc2C(=O)O)c2c(c1)c(=O)n(C)c1nn(-c3cncnc3)cc21 (centres unmarked) [Compound I-30, 2-((1-(4,7-Dimethyl-5-oxo-2-(pyrimidin-5-yl)-4,5-dihydro-2H-pyrazolo[3,4-c]isoquinolin-9-yl)ethyl)amino)benzoic acid] | < 1000 nM
Cc1cc(C(C)Nc2ccc(Cl)nc2C(=O)O)c2c(c1)c(=O)n(C)c1nn(-c3ccccc3C)cc21 (centres unmarked) [Compound I-31, 6-Chloro-3-((1-(4,7-dimethyl-5-oxo-2-(o-tolyl)-4,5-dihydro-2H-pyrazolo[3,4-c]isoquinolin-9-yl)ethyl)amino)picolinic acid] | < 1000 nM
COc1ccc2c3c(C(C)Nc4ccccc4C(=O)O)cc(C)cc3c(=O)n(C)c2n1 (centres unmarked) [Compound I-32, 2-[1-(3-Methoxy-5,8-dimethyl-6-oxo-benzo[c][1,8]naphthyridin-10-yl)ethylamino]benzoic acid] | < 1000 nM
Cc1cc(C(C)Nc2ccccc2C(=O)O)c2c(c1)c(=O)n(C)c1nc(N(C)C)ccc21 (centres unmarked) [Compound I-33, 2-[1-[3-(Dimethylamino)-5,8-dimethyl-6-oxo-benzo[c][1,8]naphthyridin-10-yl]ethylamino]benzoic acid] | < 1000 nM
COCCOc1ccc2c3c(C(C)Nc4ccccc4C(=O)O)cc(C)cc3c(=O)n(C)c2n1 (centres unmarked) [Compound I-34, 2-[1-[3-(2-Methoxyethoxy)-5,8-dimethyl-6-oxo-benzo[c][1,8]naphthyridin-10-yl]ethylamino]benzoic acid] | < 1000 nM
CC(Nc1ccccc1C(=O)O)c1cc(Cl)cc2c(=O)n(C)c3c(cnn3C)c12 (centres unmarked) [Compound I-35, 2-((1-(7-Chloro-3,4-dimethyl-5-oxo-4,5-dihydro-3H-pyrazolo[3,4-c]isoquinolin-9-yl)ethyl)amino)benzoic acid] | < 1000 nM
Cc1cc(C(C)Nc2ccccc2C(=O)O)c2c(c1)c(=O)n1c3c2cnn3CCC1 (centres unmarked) [Compound I-36, 2-((1-(8-Methyl-6-oxo-4,5-dihydro-3H,6H-2,2a,5a-triazaaceanthrylen-10-yl)ethyl)amino)benzoic acid] | < 1000 nM
Cc1cc(C(C)Nc2ccc(C)nc2C(=O)O)c2c(c1)c(=O)n1c3c2cnn3CCC1 (centres unmarked) [Compound I-37, 6-Methyl-3-((1-(8-methyl-6-oxo-4,5-dihydro-3H,6H-2,2a,5a-triazaaceanthrylen-10-yl)ethyl)amino)picolinic acid] | < 1000 nM
Cc1cc(C(C)Nc2ccccc2C(=O)O)c2c(c1)c(=O)n1c3c2cnn3C(C)CC1 (centres unmarked) [Compound I-38, 2-((1-(3,8-Dimethyl-6-oxo-4,5-dihydro-3H,6H-2,2a,5a-triazaaceanthrylen-10-yl)ethyl)amino)benzoic acid] | < 1000 nM
Cc1cc(C(C)Nc2ccc(Cl)nc2C(=O)O)c2c(c1)c(=O)n1c3c2cnn3C(C)CC1 (centres unmarked) [Compound I-39, 6-Chloro-3-((1-(3,8-dimethyl-6-oxo-4,5-dihydro-3H,6H-2,2a,5a-triazaaceanthrylen-10-yl)ethyl)amino)picolinic acid] | < 1000 nM
Cc1cc(C(C)Nc2ccc(Cl)nc2-c2cnn(C)c2)c2c(c1)c(=O)n(C)c1c2cnn1C1CCN(S(C)(=O)=O)CC1 (centres unmarked) [Example 183, 9-[1-[[6-chloro-2-(1-methylpyrazol-4-yl)-3-pyridyl]amino]ethyl]-4,7-dimethyl-3-(1-methylsulfonyl-4-piperidyl)pyrazolo[3,4-c]isoquinolin-5-one] | < 1000 nM
COC(=O)N1CCC(n2ncc3c4c(C(C)Nc5ccc(Cl)nc5-c5cnn(C)c5)cc(C)cc4c(=O)n(C)c32)CC1 (centres unmarked) [Example 184, methyl 4-[9-[1-[[6-chloro-2-(1-methylpyrazol-4-yl)-3-pyridyl]amino]ethyl]-4,7-dimethyl-5-oxo-pyrazolo[3,4-c]isoquinolin-3-yl]piperidine-1-carboxylate] | < 1000 nM
Cc1cc(C(C)Nc2ccc(Cl)nc2-c2cnn(C)c2)c2c(c1)c(=O)n(C)c1c2cnn1C1CCN(S(=O)(=O)C2CC2)CC1 (centres unmarked) [Example 185, 9-[1-[[6-chloro-2-(1-methylpyrazol-4-yl)-3-pyridyl]amino]ethyl]-3-(1-cyclopropylsulfonyl-4-piperidyl)-4,7-dimethyl-pyrazolo[3,4-c]isoquinolin-5-one] | < 1000 nM
